Laboratory results reported in patent US20080103110A1, “Compounds” (DRUG DISCOVERY LABORATORY AS, priority 2004, published 2008).
Structures can show the parent of a compound that is named as a salt.

Target: T1, bovine serum albumin (BSA) (Bos taurus, UniProt P02769)
T1 construct: a solution of bovine serum albumin (BSA) in water
Assay: Protein binding studies: BSA solution, centrifugal filter devices, drug in filtrate by HPLC
Format: in vitro ADME
Settings: 6-mercaptopurine and 6-mercaptopurine prodrugs; method of Example 7, 4% BSA, 37° C.
Description: The compound (approximately 5 mg) was dissolved in DMSO (approximately 1.8 ml). A small sample of this DMSO solution (approximately 5 mg) was added to a solution of bovine serum albumin (BSA) in water (approximately 1.8 ml, 4% BSA). Another sample of the DMSO solution (approximately 5 mg) was added to a solution of phosphate buffer pH 7.4 (isotonic) (approximately 1.8 ml).
Both samples were shaken in a water bath for 30 minutes at 37° C.
The devices were centrifugated at 4000 rpm for 1 hour at 37° C.
The amount of drug in the filtrates was determined by HPLC (C-18 column, phosphate buffer pH 2.2/acetonitrile, UV detection).

T1 sequence (P02769 25-607): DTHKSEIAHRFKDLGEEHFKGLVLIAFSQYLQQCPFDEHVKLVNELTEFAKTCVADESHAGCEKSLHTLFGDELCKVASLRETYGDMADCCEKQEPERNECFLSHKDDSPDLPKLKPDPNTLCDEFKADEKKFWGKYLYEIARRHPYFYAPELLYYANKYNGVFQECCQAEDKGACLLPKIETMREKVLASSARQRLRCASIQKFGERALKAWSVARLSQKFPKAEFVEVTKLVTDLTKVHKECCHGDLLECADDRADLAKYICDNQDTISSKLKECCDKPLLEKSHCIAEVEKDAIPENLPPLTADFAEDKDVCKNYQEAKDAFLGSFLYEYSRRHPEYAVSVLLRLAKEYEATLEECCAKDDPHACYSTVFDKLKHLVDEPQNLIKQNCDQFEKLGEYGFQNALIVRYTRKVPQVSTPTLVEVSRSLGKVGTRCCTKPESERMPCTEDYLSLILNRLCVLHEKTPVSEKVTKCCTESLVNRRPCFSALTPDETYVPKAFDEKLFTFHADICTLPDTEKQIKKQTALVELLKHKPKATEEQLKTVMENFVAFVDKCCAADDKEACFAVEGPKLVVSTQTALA

% Albumin binding | SMILES
10% | Sc1ncnc2nc[nH]c12 [6-Mercaptopurine, reference compound]
72% | COC(=O)CCCCCSc1ncnc2[nH]cnc12 [Example 9, 6-(1H-purin-6-ylthio)-hexanoic acid methyl ester]
insoluble | COC(=O)CCCCCCCCCCCSc1ncnc2[nH]cnc12 [Example 10, 12-(1H-purin-6-ylthio)-dodecanoic acid methyl ester]
100% | O=C(O)CCCCCCCCCCCSc1ncnc2[nH]cnc12 [Example 11, 12-(1H-purin-6-ylthio)dodecanoic acid]

Same assay, conditions: didanosine and didanosine prodrugs; method of Example 7, 4% BSA, 37° C.

% Albumin binding | SMILES
100% | O=C(O)CCCCC(=O)OCC1CCC(n2cnc3c(=O)[nH]cnc32)O1 (stereo not drawn) [Example 21, 2′,3′-dideoxy-5′-hydrogen hexanedioate inosine]
10% | O=C(O)CCCCCCC(=O)OCC1CCC(n2cnc3c(=O)[nH]cnc32)O1 (stereo not drawn) [Example 22, 2′,3′-dideoxy-5′-hydrogen octanedioate inosine]
40% | O=C(O)CCCCCCCCCCC(=O)OCC1CCC(n2cnc3c(=O)[nH]cnc32)O1 (stereo not drawn) [Example 23, 2′,3′-dideoxy-5′-hydrogen dodecanedioate inosine]

SMILES | % Albumin binding
CC(C)(C)OC(=O)OC[C@@H]1CC[C@H](n2cnc3c(O)ncnc32)O1 [Example 24, 5′-Boc,-2′3′-dideoxyinosine] | 94%

Same assay, conditions: didanosine derivatives of Examples 24 and 25; 4% BSA, 37° C.

SMILES | % Protein Binding
O=C(O)Cc1ccccc1CC(=O)OC[C@@H]1CC[C@H](n2cnc3c(O)ncnc32)O1 [5′-(2′3′-dideoxyinosine) mono 1,2-benzenediacetic acid ester] | 25%
O=C(O)CCc1ccc(CCC(=O)OC[C@@H]2CC[C@H](n3cnc4c(O)ncnc43)O2)cc1 [5′-(2′3′-dideoxyinosine) mono 1,4-benzenedipropionic acid ester] | 63%
O=C(O)Cc1cccc(CC(=O)OC[C@@H]2CC[C@H](n3cnc4c(O)ncnc43)O2)c1 [5′-(2′,3′-dideoxyinosine) mono 1,3-benzenediacetic acid ester] | 38%
O=C(O)c1cccc(C(=O)OC[C@@H]2CC[C@H](n3cnc4c(O)ncnc43)O2)c1 [5′-(2′,3′-dideoxyinosine) mono 1,3-benzenedicarboxylic acid ester] | 51%
O=C(O)Cc1ccc(CC(=O)OC[C@@H]2CC[C@H](n3cnc4c(O)ncnc43)O2)cc1 [5′-(2′,3′-dideoxyinosine) mono 1,4-benzenediacetic acid ester] | 28%
O=C(O)c1ccc(C(=O)OC[C@@H]2CC[C@H](n3cnc4c(O)ncnc43)O2)cc1 [5′-(2′,3′-dideoxyinosine) mono 1,4-benzenedicarboxylic acid ester] | 44%
CC(C)(C)OC(=O)OC[C@@H]1CC[C@H](n2cnc3c(O)ncnc32)O1 [Example 24, 5′-Boc,-2′3′-dideoxyinosine] | 8%

System: implanted human colon cancer
Assay: Efficacy of cytarabin azelaic acid derivative versus cytarabin, tumor size in nude mice
Format: in vivo
Settings: solutions of Example 46, 0.1 ml i.p. twice, tumor size determined at day 13
Description: A solution of cytarabin hydrochloride was prepared by dissolving the hydrochloride salt (5.0 mg) in a sterile saline solution (1.0 ml). The solution was shaken with a ESPE Capmix shaker for 60 seconds before injection.
(§1) A solution of 5′-O-(azelaoyl) 1-β-D-arabinofuranosyl-cytosine meglumine salt was prepared by dissolving N-methyl-D-glucamine (6.0 mg, 0.030 mmol) and 5′-O-(azelaoyl) 1-β-D-arabinofuranosyl-cytosine (8.5 mg, 0.020 mmol) in a sterile saline solution (1.0 ml). The solution was shaken with a ESPE Capmix shaker for 60 seconds before injection.
(§2) The solution for injection (azelaoyl derivative) from Example 46 was administered i.p. twice (0.1 ml) to 4 nude mice (20 g). The mice had implanted human colon cancer on the leg. The second injection was on day 3.
The solutions (cytarabin and cytarabine azelaic derivative) described in Example 46 were injected as described in Example 47 (4 animals in each group). The size of the tumor was determined at day 13.

SMILES | average tumor growth
CNC[C@H](O)[C@@H](O)[C@H](O)[C@H](O)CO.Nc1ccn([C@@H]2O[C@H](COC(=O)CCCCCCCC(=O)O)[C@@H](O)[C@@H]2O)c(=O)n1 [Example 45, 5′-O-(azelaoyl) 1-β-D-arabinofuranosyl-cytosine meglumine salt] | average tumor growth was higher for cytarabin treated mice than for mice treated with azelaic acid derivative
Nc1ccn([C@@H]2O[C@H](CO)[C@@H](O)[C@@H]2O)c(=O)n1 [cytarabin, cytarabin hydrochloride, reference compound] | higher for cytarabin treated mice than for mice treated with azelaic acid derivative

System: nude mice
Assay: Toxicity of 5-O-(azelaoyl) 1-beta-D-arabinofuranosyl-cytosine meglumine salt in nude mice
Format: in vivo
Settings: 8.5 mg/ml solution, 0.1 ml i.p. twice (second injection on day 3), nude mice (20 g) with implanted human colon cancer, observed for 13 days
Description: as §1, §2

SMILES | sign of toxicity
CNC[C@H](O)[C@@H](O)[C@H](O)[C@H](O)CO.Nc1ccn([C@@H]2O[C@H](COC(=O)CCCCCCCC(=O)O)[C@@H](O)[C@@H]2O)c(=O)n1 [Example 45, 5′-O-(azelaoyl) 1-β-D-arabinofuranosyl-cytosine meglumine salt] | did not show any sign of toxicity
